In ChEMBL document CHEMBL1255176, “Novel dihydropyrimidines as a potential new class of antitubercular agents” (2010):
Converted amounts (≈) assume the structure as drawn.

What was measured:
Assay type in all cases: functional
[1] = test system: Mycobacterium tuberculosis; assay: Antitubercular activity against Mycobacterium tuberculosis H37Rv at 6.25 ug/ml by microplate alamar blue assay
[2] = Selectivity index, ratio of IC50 for african green monkey Vero cells to MIC for Mycobacterium tuberculosis H37Rv
[3] = test system: Mycobacterium tuberculosis; assay: Antitubercular activity against Mycobacterium tuberculosis H37Rv by twofold dilution method

## CCOC(=O)C1=C(C)NC(=O)NC1c1cn(-c2ccccc2)nc1-c1ccc(C)cc1 (centres undefined)
[1]
  inhibition at 6.25 µg/mL: 68%

## COC(=O)C1=C(C)NC(=S)NC1c1cn(-c2ccccc2)nc1-c1ccc(Br)cc1 (centres undefined)
[1]
  inhibition at 6.25 µg/mL: 43%

## COC(=O)C1=C(C)NC(=S)NC1c1cn(-c2ccccc2)nc1-c1ccc([N+](=O)[O-])cc1 (centres undefined)
[2]
  Selectivity Index: 3
[1]
  inhibition at 6.25 µg/mL: 91%
[3]
  MIC: 3.13 µg/mL (≈ 6.96 µM)

## COC(=O)C1=C(C)NC(=S)NC1c1cn(-c2ccccc2)nc1-c1ccc(C)cc1 (centres undefined)
[1]
  inhibition at 6.25 µg/mL: 46%

## COC(=O)C1=C(C)NC(=O)NC1c1cn(-c2ccccc2)nc1-c1ccc(F)cc1 (centres undefined)
[1]
  inhibition at 6.25 µg/mL: 62%

## COC(=O)C1=C(C)NC(=O)NC1c1cn(-c2ccccc2)nc1-c1ccc(Cl)cc1 (centres undefined)
[1]
  inhibition at 6.25 µg/mL: 75%

## COC(=O)C1=C(C)NC(=O)NC1c1cn(-c2ccccc2)nc1-c1ccc(Br)cc1 (centres undefined)
[2]
  Selectivity Index: >1.6
[1]
  inhibition at 6.25 µg/mL: 90%
[3]
  MIC: 6.25 µg/mL (≈ 13.4 µM)

## COC(=O)C1=C(C)NC(=O)NC1c1cn(-c2ccccc2)nc1-c1ccc([N+](=O)[O-])cc1 (centres undefined)
[1]
  inhibition at 6.25 µg/mL: 39%

## CCOC(=O)C1=C(C)NC(SC)NC1c1cn(-c2ccccc2)nc1-c1ccc(F)cc1 (centres undefined)
[1]
  inhibition at 6.25 µg/mL: 8%

## CCOC(=O)C1=C(C)NC(SC)NC1c1cn(-c2ccccc2)nc1-c1ccc(Cl)cc1 (centres undefined)
[1]
  inhibition at 6.25 µg/mL: 13%

## CCOC(=O)C1=C(C)NC(SC)NC1c1cn(-c2ccccc2)nc1-c1ccc(Br)cc1 (centres undefined)
[1]
  inhibition at 6.25 µg/mL: 13%

## CCOC(=O)C1=C(C)NC(SC)NC1c1cn(-c2ccccc2)nc1-c1ccc([N+](=O)[O-])cc1 (centres undefined)
[1]
  inhibition at 6.25 µg/mL: 37%

## CCOC(=O)C1=C(C)NC(SC)NC1c1cn(-c2ccccc2)nc1-c1ccc(C)cc1 (centres undefined)
[2]
  Selectivity Index: 4.7
[1]
  inhibition at 6.25 µg/mL: 97%
[3]
  MIC: 1.56 µg/mL (≈ 3.48 µM)

## CCOC(=O)C1=C(C)NC(=O)NC1c1cn(-c2ccccc2)nc1-c1ccc([N+](=O)[O-])cc1 (centres undefined)
[2]
  Selectivity Index: >500
[1]
  inhibition at 6.25 µg/mL: 100%
[3]
  MIC: 0.02 µg/mL (≈ 0.0447 µM)

## CCOC(=O)C1=C(C)NC(=N)NC1c1cn(-c2ccccc2)nc1-c1ccc([N+](=O)[O-])cc1 (centres undefined)
[1]
  inhibition at 6.25 µg/mL: 58%

## CCOC(=O)C1=C(C)NC(=S)NC1c1cn(-c2ccccc2)nc1-c1ccc(Cl)cc1 (centres undefined)
[1]
  inhibition at 6.25 µg/mL: 75%

## CCOC(=O)C1=C(C)NC(=S)NC1c1cn(-c2ccccc2)nc1-c1ccc(Br)cc1 (centres undefined)
[1]
  inhibition at 6.25 µg/mL: 87%

## COC(=O)C1=C(C)NC(=O)NC1c1cn(-c2ccccc2)nc1-c1ccc(C)cc1 (centres undefined)
[2]
  Selectivity Index: >6.4
[1]
  inhibition at 6.25 µg/mL: 98%
[3]
  MIC: 1.56 µg/mL (≈ 3.88 µM)

## CCOC(=O)C1=C(C)NC(=O)NC1c1cn(-c2ccccc2)nc1-c1ccc(F)cc1 (centres undefined)
[2]
  Selectivity Index: >500
[1]
  inhibition at 6.25 µg/mL: 100%
[3]
  MIC: 0.02 µg/mL (≈ 0.0476 µM)

## CCOC(=O)C1=C(C)NC(=O)NC1c1cn(-c2ccccc2)nc1-c1ccc(Cl)cc1 (centres undefined)
[1]
  inhibition at 6.25 µg/mL: 49%

## CCOC(=O)C1=C(C)NC(=O)NC1c1cn(-c2ccccc2)nc1-c1ccc(Br)cc1 (centres undefined)
[1]
  inhibition at 6.25 µg/mL: 33%

## CCOC(=O)C1=C(C)NC(=S)NC1c1cn(-c2ccccc2)nc1-c1ccc(F)cc1 (centres undefined)
[1]
  inhibition at 6.25 µg/mL: 30%

## CCOC(=O)C1=C(C)NC(=S)NC1c1cn(-c2ccccc2)nc1-c1ccc([N+](=O)[O-])cc1 (centres undefined)
[2]
  Selectivity Index: >3.2
[1]
  inhibition at 6.25 µg/mL: 92%
[3]
  MIC: 3.13 µg/mL (≈ 6.75 µM)

## CCOC(=O)C1=C(C)NC(=S)NC1c1cn(-c2ccccc2)nc1-c1ccc(C)cc1 (centres undefined)
[2]
  Selectivity Index: 5.7
[1]
  inhibition at 6.25 µg/mL: 96%
[3]
  MIC: 1.56 µg/mL (≈ 3.61 µM)

## CCOC(=O)C1=C(C)NC(=N)NC1c1cn(-c2ccccc2)nc1-c1ccc(F)cc1 (centres undefined)
[1]
  inhibition at 6.25 µg/mL: 18%

## CCOC(=O)C1=C(C)NC(=N)NC1c1cn(-c2ccccc2)nc1-c1ccc(Cl)cc1 (centres undefined)
[2]
  Selectivity Index: >3.2
[1]
  inhibition at 6.25 µg/mL: 94%
[3]
  MIC: 3.13 µg/mL (≈ 7.18 µM)

## CCOC(=O)C1=C(C)NC(=N)NC1c1cn(-c2ccccc2)nc1-c1ccc(Br)cc1 (centres undefined)
[1]
  inhibition at 6.25 µg/mL: 51%

## CCOC(=O)C1=C(C)NC(=N)NC1c1cn(-c2ccccc2)nc1-c1ccc(C)cc1 (centres undefined)
[1]
  inhibition at 6.25 µg/mL: 78%

## COC(=O)C1=C(C)NC(=S)NC1c1cn(-c2ccccc2)nc1-c1ccc(F)cc1 (centres undefined)
[1]
  inhibition at 6.25 µg/mL: 73%

## COC(=O)C1=C(C)NC(=S)NC1c1cn(-c2ccccc2)nc1-c1ccc(Cl)cc1 (centres undefined)
[1]
  inhibition at 6.25 µg/mL: 68%

## NNC(=O)c1ccncc1 [ISONIAZID]
[3]
  MIC: 0.03 µg/mL (≈ 0.219 µM)
